Results published in patent EP4810020A1, “NANOPARTICLE ADIPOSOME ENCAPSULATING HYDROPHOBIC SMALL-MOLECULE DRUG, PREPARATION METHOD THEREFOR, AND USE THEREOF” (WeCareLife Biotech Co., Ltd., priority 2023, dated 2025).
Like-named read-outs stand apart in the source and are kept apart here. Square brackets hold non-standard residues; d marks the D form. Peptide text beside a SMILES is read from it. * marks the point of attachment. Dolaproine = CO[C@@H]([C@@H]1CCCN1)[C@@H](C)C(=O)O; Dil = CC[C@H](C)[C@H](NC)[C@@H](CC(=O)O)OC; X1 = C[C@@H](N*)[C@@H](O)c1ccccc1; NMeV = CN[C@H](C(=O)O)C(C)C

Key:
[1] = dissolution / appearance in PBS
Experimental: Paclitaxel and the prepared paclitaxel adiposomes were dissolved in PBS, respectively.

[2] = cited from earlier work

| solubility / state in PBS [1] | Compound | solubility / state in PBS ([1]; in PBS) | logP [2] |
| --- | --- | --- | --- |
| – | CC[C@@]1(O)C(=O)OCc2c1cc1n(c2=O)Cc2cc3ccccc3nc2-1 [Camptothecin] | very low solubility in PBS | 1.9 |
| very low solubility in PBS | C=CCc1ccc(O)c(-c2ccc(O)c(CC=C)c2)c1 [Honokiol] | – | – |
| – | CC[C@H](C)[C@@H]([C@@H](CC(=O)N1CCC[C@H]1[C@H](OC)[C@@H](C)C(=O)N[C@H](C)[C@@H](O)c1ccccc1)OC)N(C)C(=O)[C@@H](NC(=O)[C@@H](NC)C(C)C)C(C)C [Monomethyl auristatin E] (H-[NMeV]V[Dil][Dolaproine]-X1) | very low solubility in PBS | 3.4 |
| – | CC(=O)O[C@H]1C(=O)[C@@]2(C)[C@H]([C@H](OC(=O)c3ccccc3)[C@]3(O)C[C@H](OC(=O)[C@H](O)[C@@H](NC(=O)c4ccccc4)c4ccccc4)C(C)=C1C3(C)C)[C@]1(OC(C)=O)CO[C@@H]1C[C@@H]2O [Paclitaxel] | very low solubility in PBS | – |
